Reference: ChEMBL document CHEMBL3301361, “Experimental in vitro DMPK and physicochemical data on a set of publicly disclosed compounds”

Test: physchem
Conditions: octan-1-ol/water, pH 7.4, LogD7.4

Row | logD | SMILES
1 | 3.4 | Cc1cccc(C(=O)N2CCC(C(=O)c3ccc(F)cc3)CC2)c1
2 | 3.32 | CCCS(=O)(=O)c1ccc(C(CNS(=O)(=O)c2ccc(C(F)(F)F)cc2)N2CCCCCC2)cc1 (stereo unspecified)
3 | 3.41 | Cc1cc(C)c2c(N)c(C(=O)NCc3ccccc3)sc2n1
4 | 3.53 | CC(C)Cn1c(=O)n(C)c(=O)c2c(C(=O)N3CC=CC3)c(Cc3ccccc3C(F)(F)F)sc21
5 | 3.36 | Cc1cc2n[nH]c(=O)n2c2cc(-c3cccc(CO)c3)ccc12
6 | 3.5 | CNC(=O)c1ccc(CCC(COc2ccc(-c3cccc([N+](=O)[O-])c3)cc2)N2C(=O)CSC2=O)cc1 (stereo unspecified)
7 | 3.71 | N#CCc1c[nH]c2ccc(OCc3ccccc3)cc12
8 | 3.47 | O=C(COCc1ccccn1)N1CCN(c2ccc(Cl)cc2Cl)CC1
9 | 3.45 | Nc1ccc(Cl)c(C(=O)NCC23CC4CC(CC(C4)C2)C3)c1
10 | 3.69 | Cc1cc(NCc2ccccc2)nc2ccccc12
11 | 3.68 | Cc1[nH]c2nc(NCc3cccc(Br)c3)nn2c(=O)c1Cc1ccccc1
12 | 3.65 | Cc1ccc(Oc2ccc(C(=O)NCc3ccncc3)cc2)cc1
13 | 3.44 | CCCS(=O)(=O)N1CCCC(C(=O)N2CCC(Cc3ccccc3)CC2)C1 (stereo unspecified)
14 | 3.75 | Cn1c(CN2CCN(c3cccc(Cl)c3)CC2)nc2ccccc21
15 | 3.63 | CCNc1nc(N)c(C(=O)c2ccc(Cl)s2)s1
16 | 3.33 | O=c1ccoc2cc(OCc3ccccc3)ccc12
17 | 3.44 | O=C(Nc1ccccc1)c1cc2ccccc2o1
18 | 3.62 | O=C(Nc1nc(-c2ccccc2)cs1)c1cccnc1
19 | 3.5 | COc1ccc(C(=O)Nc2cccc(NC(=O)c3ccc(OC)c(OC)c3)n2)cc1OC
20 | 3.4 | COc1ccc(Cl)cc1NC(=O)CCS(=O)(=O)c1ccc(Br)cc1
21 | 3.62 | CN(C)c1ccnc2sc(C(=O)NCc3ccccc3)c(N)c12
22 | 3.7 | CCCc1c(C(=O)Nc2cc(C)on2)cnn1-c1ccccc1

Row | logD | SMILES
23 | 3.6 | Cc1[nH]c2nc(NCc3cccc(Cl)c3)nn2c(=O)c1Cc1ccccc1
24 | 3.62 | Clc1cccc(-n2nnnc2NCc2ccccc2Oc2ccccn2)c1Cl
25 | 3.5 | Cn1cnc2cc(C#Cc3ccccc3)cnc21
26 | 3.7 | CCN1CCOc2cc(COc3ccccc3)cnc21
27 | 3.72 | CC[C@H](NC(=O)c1c([S+](C)[O-])c(-c2ccc(F)cc2)nc2ccccc12)c1ccccc1 (stereo partly specified)
28 | 3.56 | CC[C@H](NC(=O)c1c([S+](C)[O-])c(-c2cccs2)nc2ccccc12)c1ccccc1 (stereo partly specified)
29 | 3.45 | CC[C@H](NC(=O)c1c([S+]([O-])CC)c(-c2ccccc2)nc2ccccc12)c1ccccc1 (stereo partly specified)
30 | 3.62 | CC[C@H](NC(=O)c1c([S+](C)[O-])c(-c2ccccc2)nc2cc(F)ccc12)c1ccccc1 (stereo partly specified)
31 | 3.7 | Cc1[nH]c2nc(NCc3ccc(Cl)cc3)nn2c(=O)c1Cc1ccccc1
32 | 3.41 | COc1cc(Nc2nccc(Oc3cnc4ccccc4c3)n2)cc(OC)c1OC
33 | 3.47 | CN(c1ccccc1)c1ccnc(Nc2cc(N3CCOCC3)cc(N3CCOCC3)c2)n1
34 | 3.7 | Cc1ccc(CO)cc1N(C)c1ccnc(Nc2cc(OC3CCOCC3)cc(N3CCOCC3)c2)n1
35 | 3.58 | Cc1nc(C(=O)[C@@H](C)Oc2ccc(SCCCCCc3ccccc3)cc2)sc1CCCC(=O)O
36 | 3.65 | COc1ccc(OC)c(-c2cccc3c(N)c(C(=O)NC(C)C)nnc23)c1
37 | 3.47 | COc1ccc(OC)c(-c2c(F)ccc3c(N)c(C(=O)NC4CC4)nnc23)c1
38 | 3.37 | COc1ccc(-c2c(F)ccc3c(N)c(C(=O)NC4CC4)nnc23)c(OC)n1
39 | 3.4 | COc1ncc(C)cc1-c1cccc2c(N)c(C(=O)NC3CC3)nnc12
40 | 3.54 | O=C1O[C@@H](Cn2nncc2F)CN1c1ccc(C2=CCS(=O)(=O)CC2)c(F)c1
41 | 3.7 | CCN(C(=O)Cc1ccc(S(=O)(=O)N(C)C)cc1)C1CCN(CCC(c2ccccc2)c2ccccc2)CC1
42 | 3.7 | CN(C(=O)Cc1ccc(C#N)cc1)C1CCN(CCC(c2ccccc2)c2ccccc2)CC1
43 | 3.7 | COc1cc(N2CCN(C(C)=O)CC2)ccc1Nc1ncc(Br)c(-c2cnc3ccccn23)n1
44 | 3.5 | COc1cc(N2CCN(C(C)=O)CC2)ccc1Nc1ncc(Cl)c(-c2cnc3c(OC)cccn23)n1

Row | logD | SMILES
45 | 3.7 | COc1cc(N2CCN(C(C)=O)CC2)ccc1Nc1ncc(Cl)c(-c2cnc3cc(F)ccn23)n1
46 | 3.49 | COc1ccc(C(=O)Nc2cc(NC(=O)c3cccc(N(C)C)c3)ccc2Br)cc1OC
47 | 3.6 | N#Cc1cc(O)cc2nc(-c3ccc(O)cc3)oc12
48 | 3.5 | CCc1ccccc1-c1ccc(-c2nc3ccncc3c(O)c2C#N)cc1
49 | 3.6 | CCOc1cccc(Nc2nnc(C(=O)Nc3ccc(N4CCOCC4)nc3)o2)c1
50 | 3.7 | O=[N+]([O-])c1cccc2ccc(C(Cl)(Cl)Cl)nc12
51 | 3.64 | O=C(Nc1ccc(Cl)nc1)c1ccc(F)c(Cl)c1
52 | 3.61 | CC#CCn1c(=O)c2c(-c3cncn3C)n(Cc3ccnc4ccc(Cl)cc34)nc2n(CC2CC2)c1=O
53 | 3.53 | Cn1cncc1-c1c2c(=O)n(C3CC3)c(=O)n(CC3CC3)c2nn1Cc1ccnc2ccc(Cl)cc12
54 | 3.59 | C#CC(C)n1c(=O)c2c(-c3cncn3C)n(Cc3ccnc4ccc(Cl)cc34)nc2n(CC2CC2)c1=O (stereo unspecified)
55 | 3.43 | Cn1cc(C#N)cc1-c1c2c(=O)n(CC#CCn3cncn3)c(=O)n(CC3CC3)c2nn1Cc1ccnc2ccc(Cl)cc12
56 | 3.33 | Cn1cc(C#N)cc1-c1c2c(=O)n(CC#N)c(=O)n(CC3CC3)c2nn1Cc1ccnc2ccc(Cl)cc12
57 | 3.5 | COc1cc(CCc2cc(Nc3ccnc(NCc4ccccn4)n3)[nH]n2)cc(OC)c1
58 | 3.58 | C[C@H]1O[C@@H](n2cnc3c(N)nc(OCC45CC6CC(CC(C6)C4)C5)nc32)[C@H](O)[C@@H]1O
59 | 3.44 | CC(C)c1ccccc1Cc1cc(C(=O)Nc2ccc(S(=O)(=O)c3ccccc3C(C)(C)C)cc2)c(O)c(O)c1O
60 | 3.4 | CC(C)OC(=O)N1CCC(Oc2ncnc3c2CCN3c2ccc(S(C)(=O)=O)cc2F)CC1
61 | 3.38 | Cc1ccc(Oc2cccc(CN3CCCC(n4cc(C)c(=O)[nH]c4=O)C3)c2)cc1 (stereo unspecified)
62 | 3.38 | Cc1cn(C2CCCN(Cc3cccc(Oc4ccc(Cl)cc4)c3)C2)c(=O)[nH]c1=O (stereo unspecified)
63 | 3.68 | Cc1cn([C@H]2CCCN(Cc3cccc(Oc4cccc(Br)c4)c3)C2)c(=O)[nH]c1=O
64 | 3.6 | CC#Cc1ccnc(-c2cc(C3(C4CC4)N=C(C)C(N)=N3)ccc2O)c1 (stereo unspecified)
65 | 3.33 | O=C(NC[C@@H](O)CN1CCC(Oc2ccc(Cl)c(Cl)c2)CC1)c1cn2cc(F)ccc2n1
66 | 3.4 | N#C/C(=C(\N)Sc1ccc(N)cc1)c1ccccc1C(F)(F)F

Row | logD | SMILES
67 | 3.6 | O=C(Nc1ccc(F)cc1F)c1cc(Cl)ccc1O
68 | 3.4 | O=S(=O)(c1ccccc1)C1(c2cc(N3CCOCC3)nc(-c3cccc4[nH]ccc34)n2)CC1
69 | 3.4 | NC1(C(=O)NC(c2ccc(Cl)cc2)C2CC2)CCN(c2ncnc3[nH]ccc23)CC1 (stereo unspecified)
70 | 3.56 | COCCNC(=O)c1ccc(Nc2ncc3cc(-c4ccnc(C)c4)ccc3n2)cc1
71 | 3.46 | CC(=O)N[C@H](C)c1ccc(Nc2ncc3cc(-c4ccncc4)cc(C)c3n2)cc1
72 | 3.64 | O=C(NC1Cc2ccccc2N(CC(CO)CO)C1=O)c1cc2cc(Cl)ccc2[nH]1 (stereo unspecified)
73 | 3.49 | O=C(NC1Cc2ccccc2N(CCCO)C1=O)c1cc2cc(Cl)sc2[nH]1 (stereo unspecified)
74 | 3.37 | O=C(NC1Cc2ccccc2N(C[C@@H](O)CO)C1=O)c1cc2cc(Cl)sc2[nH]1 (stereo partly specified)
75 | 3.7 | CNc1nc2nc(SCc3cccc(F)c3F)nc(N[C@H](C)CO)c2s1
76 | 3.61 | COc1ccc2c(C)cc(N[C@H]3CCC[C@H](NCc4cccc(OC(F)(F)F)c4)C3)nc2c1
77 | 3.53 | O=C1CCCc2nc(C#Cc3ccccc3)ccc21
78 | 3.57 | CCCc1c(OCCCSc2ccc(CC(=O)O)cc2Cl)ccc(C(=O)CC)c1O
79 | 3.67 | Cn1cc(C#N)cc1-c1c2c(=O)n(C)c(=O)n(CC3CC3)c2nn1Cc1ccnc2ccc(Cl)cc12
80 | 3.55 | Cc1cnc2c(N[C@H](C)CO)nc(SCc3cccc(F)c3F)nc2n1
81 | 3.6 | FC(F)(F)c1cc(CO[C@H]2CCCN[C@H]2c2ccccc2)cc(C(F)(F)F)c1
82 | 3.63 | O=C(COc1ccc(SCCCCCc2ccccc2)cc1)COc1ccc(C(=O)O)cc1
83 | 3.58 | COC(=O)[C@H](Cc1ccc([N+](=O)[O-])cc1)NC(=O)c1cccc2ccccc12
84 | 3.6 | C1CCc2c(c3c(N4CCCC4)nc(N4CCCC4)nc3n2CCN2CCOCC2)C1
85 | 3.51 | C[C@@H]1CCCN1CCc1cc2cc(-c3ccc(C#N)cc3)ccc2o1
86 | 3.4 | COc1cc2ncnc(Nc3cc(Cl)ccc3F)c2cc1OCCCN1CCOCC1
87 | 3.6 | COc1ccc(Cl)c(Nc2ncnc3cc(OC)cc(OC4CCN(C)CC4)c23)c1
88 | 3.4 | CCNC(=O)OC[C@@H](C)N(c1cc(Cl)ccc1CO)S(=O)(=O)c1ccc(Cl)cc1

Row | logD | SMILES
89 | 3.5 | Cc1cnc2nc(SCc3cccc(F)c3F)nc(N[C@H](C)CO)c2n1
90 | 3.5 | CC(CNS(=O)(=O)C(C)C)c1ccc(-c2ccc(C#N)cc2)cc1 (stereo unspecified)
91 | 3.62 | Cc1ncc(-c2ccnc(Nc3ccc(C#N)cc3)n2)n1C(C)C
92 | 3.7 | Oc1ccc(-c2csc(-c3ccc(O)cc3)n2)cc1
93 | 3.4 | C(=C\c1c(-c2ccccc2)nc2sccn12)/c1ccncn1
94 | 3.34 | COc1cc2ncc(C(N)=O)c(Nc3ccc(C)cc3F)c2cc1OC
95 | 3.6 | COc1cc2ncc(C(N)=O)c(Nc3cccc(Cl)c3F)c2cc1OC
96 | 3.41 | COc1cc2c(Nc3cccc(Cl)c3Cl)c(C(N)=O)cnc2cc1NCCN(C)C
97 | 3.33 | CC(C)Oc1ccc(S(C)(=O)=O)cc1C(=O)N1CCN(c2ccc(C(F)(F)F)cc2)CC1
98 | 3.5 | COc1cc2ncnc(Nc3cccc(C)c3)c2cc1OC
99 | 3.4 | CCOc1ccc2nc(NC(=O)CC)sc2c1
100 | 3.5 | O=c1c(-c2ccc3c(c2)OCO3)coc2cc(O)cc(O)c12
101 | 3.6 | Cn1c(CN2CCC(c3ccccc3)CC2)nc2ccccc21
102 | 3.54 | Cn1c(CN2CCN(c3ccc(Cl)cc3)CC2)nc2ccccc21
103 | 3.6 | Cc1cccc(C#Cc2ccccc2)n1
104 | 3.66 | CCN(CC)S(=O)(=O)c1ccc(NC(=O)[C@@](C)(O)C(F)(F)F)c(Cl)c1
105 | 3.38 | COc1cc(C(=O)c2cc(Cl)ccc2N)cc(OC)c1OC
106 | 3.5 | COc1cc2ncnc(NCc3cccc(C)c3)c2cc1OC
